Source: PubChem BioAssay (NCI)
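All cell lines were grown in 96-well plates and treated with compound for 48 hours. TGI: concentration producing complete growth inhibition.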

How the values were obtained:
Test in all cases: NCI tumour cell line growth inhibition, 48 h
HOP-62 NSCLC = test system: HOP-62 NSCLC
OVCAR-8 ovarian = test system: OVCAR-8 ovarian
HCT-116 colon = test system: HCT-116 colon
M14 melanoma = test system: M14 melanoma
786-0 renal = test system: 786-0 renal
TK-10 renal = test system: TK-10 renal
HCT-15 colon = test system: HCT-15 colon
NCI-H226 lung = test system: NCI-H226 lung
SK-OV-3 ovarian = test system: SK-OV-3 ovarian
MCF7 breast = test system: MCF7 breast
SNB-19 CNS = test system: SNB-19 CNS
MDA-MB-231 breast = test system: MDA-MB-231 breast
HOP-92 NSCLC = test system: HOP-92 NSCLC
SK-MEL-5 melanoma = test system: SK-MEL-5 melanoma
OVCAR-3 ovarian = test system: OVCAR-3 ovarian
DU-145 prostate = test system: DU-145 prostate
K-562 leukemia = test system: K-562 leukemia
SK-MEL-28 melanoma = test system: SK-MEL-28 melanoma
U251 CNS = test system: U251 CNS
SF-539 CNS = test system: SF-539 CNS
BT-549 breast = test system: BT-549 breast
SN12C renal = test system: SN12C renal
CCRF-CEM leukemia = test system: CCRF-CEM leukemia
NCI-H460 lung = test system: NCI-H460 lung
KM12 colon = test system: KM12 colon
UACC-62 melanoma = test system: UACC-62 melanoma
HCC-2998 colon = test system: HCC-2998 colon
OVCAR-4 ovarian = test system: OVCAR-4 ovarian
MDA-MB-435 = test system: MDA-MB-435
COLO 205 colon = test system: COLO 205 colon
NCI-H522 lung = test system: NCI-H522 lung
SNB-75 CNS = test system: SNB-75 CNS
IGROV1 ovarian = test system: IGROV1 ovarian
HS 578T breast = test system: HS 578T breast
EKVX NSCLC = test system: EKVX NSCLC
SF-295 CNS = test system: SF-295 CNS
LOX IMVI melanoma = test system: LOX IMVI melanoma
CAKI-1 renal = test system: CAKI-1 renal
NCI/ADR-RES ovarian = test system: NCI/ADR-RES ovarian
SK-MEL-2 melanoma = test system: SK-MEL-2 melanoma
SW-620 colon = test system: SW-620 colon
MALME-3M melanoma = test system: MALME-3M melanoma
MOLT-4 leukemia = test system: MOLT-4 leukemia
UACC-257 melanoma = test system: UACC-257 melanoma
NCI-H23 lung = test system: NCI-H23 lung
HT29 colon = test system: HT29 colon
PC-3 prostate = test system: PC-3 prostate
A549 NSCLC = test system: A549 NSCLC
A498 renal = test system: A498 renal
UO-31 renal = test system: UO-31 renal
SF-268 CNS = test system: SF-268 CNS
MDA-N = test system: MDA-N
ACHN renal = test system: ACHN renal
OVCAR-5 ovarian = test system: OVCAR-5 ovarian
HL-60(TB) leukemia = test system: HL-60(TB) leukemia
T-47D breast = test system: T-47D breast
SR leukemia = test system: SR leukemia

`C=C[C@H]1CN2CCc3c([nH]c4cc(O)ccc34)[C@@H]2C[C@@H]1C[C@H]1c2[nH]c3ccccc3c2CCN1C` gave a TGI (HOP-62 NSCLC) of 9.37 µM, a TGI (OVCAR-8 ovarian) of 11.8 µM and a TGI (HCT-116 colon) of 5.94 µM. It also gave a TGI (M14 melanoma) of 3.14 µM, a TGI (786-0 renal) of 3.36 µM and a TGI (TK-10 renal) of 22.1 µM. The TGI (HCT-15 colon) was 6.54 µM, the TGI (NCI-H226 lung) was 36.3 µM and the TGI (SK-OV-3 ovarian) was 27.4 µM. For the same molecule, the TGI (MCF7 breast) was 6.01 µM, the TGI (SNB-19 CNS) was 17.6 µM and the TGI (MDA-MB-231 breast) was 16.9 µM. The TGI (HOP-92 NSCLC) was 8.08 µM, the TGI (SK-MEL-5 melanoma) was 3.14 µM and the TGI (OVCAR-3 ovarian) was 9.55 µM. It also gave a TGI (DU-145 prostate) of 33.9 µM, a TGI (K-562 leukemia) of 7.88 µM and a TGI (SK-MEL-28 melanoma) of 3.27 µM. For the same molecule, the TGI (U251 CNS) was 3.24 µM, the TGI (SF-539 CNS) was 3.33 µM and the TGI (BT-549 breast) was 27.2 µM. The TGI (SN12C renal) was 13.3 µM, the TGI (CCRF-CEM leukemia) was 3.98 µM and the TGI (NCI-H460 lung) was 4.96 µM. The TGI (KM12 colon) was 9.13 µM, the TGI (UACC-62 melanoma) was 8.46 µM and the TGI (HCC-2998 colon) was 3.44 µM. The TGI (OVCAR-4 ovarian) was 18.7 µM, the TGI (MDA-MB-435) was 3.76 µM and the TGI (COLO 205 colon) was 3.31 µM. The TGI (NCI-H522 lung) was 8.29 µM, the TGI (SNB-75 CNS) was 6.62 µM and the TGI (IGROV1 ovarian) was 3.39 µM. The TGI (HS 578T breast) was 11.1 µM, the TGI (EKVX NSCLC) was 20.1 µM and the TGI (SF-295 CNS) was 9.15 µM. The TGI (LOX IMVI melanoma) was 9.67 µM, the TGI (CAKI-1 renal) was 14.6 µM and the TGI (NCI/ADR-RES ovarian) was 24.6 µM. The TGI (SK-MEL-2 melanoma) was 7.65 µM, the TGI (SW-620 colon) was 3.87 µM and the TGI (MALME-3M melanoma) was 26.9 µM. The TGI (MOLT-4 leukemia) was 12.4 µM, the TGI (UACC-257 melanoma) was 3.98 µM and the TGI (NCI-H23 lung) was 31.8 µM. For the same molecule, the TGI (HT29 colon) was 6.4 µM, the TGI (PC-3 prostate) was 9.69 µM and the TGI (A549 NSCLC) was 15 µM. The TGI (A498 renal) was 5.83 µM, the TGI (UO-31 renal) was 4.81 µM and the TGI (SF-268 CNS) was 15.8 µM. The TGI (MDA-N) was 3.22 µM, the TGI (ACHN renal) was 10.1 µM and the TGI (OVCAR-5 ovarian) was 31.4 µM. The TGI (HL-60(TB) leukemia) was 7.69 µM, the TGI (T-47D breast) was 36.1 µM and the TGI (SR leukemia) was 6.41 µM.
